Data as given in PMC9814530, “Rapid de novo discovery of peptidomimetic affinity reagents for human angiotensin converting enzyme 2” (Communications Chemistry, 2022).
*1 amine or outer side, *2 acyl side, *3 side chain or, on linkers, in order; H or OH if unused. Where a SMILES comes first, the peptide text is derived from it. Where no end group is shown, it is not given here. [ ]: non-standard residue; d: D form. Phe(3,4-(OMe)2) = COc1ccc(C[C@H](N)C(=O)O)cc1OC; Phe(3,4-F2) = N[C@@H](Cc1ccc(F)c(F)c1)C(=O)O; Ala(4-thiazolyl) = N[C@@H](Cc1cscn1)C(=O)O; X1 = O=C(C1(c2ccccc2)CCN([*:1])CC1)[*:2]; Phe(4-NH2) = Nc1ccc(C[C@H](N)C(=O)O)cc1; Met(O2) = CS(=O)(=O)CC[C@H](N)C(=O)O; Ala(cPr) = N[C@@H](CC1CC1)C(=O)O; Hyp = O=C(O)[C@@H]1C[C@@H](O)CN1; hArg = N=C(N)NCCCC[C@H](N)C(=O)O; Cha = N[C@@H](CC1CCCCC1)C(=O)O; 4Amb = NCc1ccc(C(=O)O)cc1; β3hS = N[C@@H](CO)CC(=O)O; Orn = NCCC[C@H](N)C(=O)O; βAla = NCCC(=O)O

Experiments:
12ca5 = test: BLI binding to an unrelated (off-target) protein; details: BLI, 12ca5 at 500 nM
Description: Peptide binding validation was carried out using the ForteBio Octet RED96 system. The chamber temperature was kept constant at 30 °C with a plate agitation speed at 1000 rpm. Briefly, streptavidin (SA)-coated biosensor tips were dipped into 200 μL of 1.0–2.0 μM biotinylated peptide solution (in a kinetic buffer (K.B.): 1 × PBS with 0.1% BSA and 0.02% Tween-20) for peptides immobilization. Once loaded with peptides, the tips were then moved into solutions containing various concentrations (1000, 500, 250, 125, and 62.5 nM) of recombinant ACE2 protein (purchased from Sino Biological, Catalog number 10108-H08H) in the K.B. to obtain the association curve. After the 180 s association step, the tips were moved back into the K.B. to obtain the dissociation curve. Buffer-only and protein-only conditions (concentration at 1000 nM) were used as references for background subtraction. The association and dissociation curves were fitted with the ForteBio Biosystems Data Analysis Software under 5 experimental conditions (n = 5, global fitting algorithm, binding model 1:1) to calculate the apparent dissociation constant (KD). […]
4.4 The binding of ABP noncanonical peptides to an unrelated protein
N6, and N8 to an unrelated protein, 12ca5, measured by BLI at concentration
(§1) (1 picture or pasted object on this page, not shown here)

ACE2 [1] = target: T1, ACE2 (Homo sapiens, UniProt Q9BYF1); test: BLI binding competition of known ACE2 binders (AngII, MLN-4760) on the ABP-ACE2 interaction; set-up: Soluble ACE2 (5 µL, 0.62 mg/mL) was mixed with 50 µL normal human serum; details: immobilized biotinylated peptide; for inhibition of ABP binding to ACE2 by AngII: 500 nM ACE2 + 5 uM AngII (10-fold excess); for inhibition of ABP binding to ACE2 by MLN-4760: 500 nM ACE2 + 5 uM MLN-4760 (10-fold excess)
T1 sequence (Q9BYF1 18-740 limits assumed): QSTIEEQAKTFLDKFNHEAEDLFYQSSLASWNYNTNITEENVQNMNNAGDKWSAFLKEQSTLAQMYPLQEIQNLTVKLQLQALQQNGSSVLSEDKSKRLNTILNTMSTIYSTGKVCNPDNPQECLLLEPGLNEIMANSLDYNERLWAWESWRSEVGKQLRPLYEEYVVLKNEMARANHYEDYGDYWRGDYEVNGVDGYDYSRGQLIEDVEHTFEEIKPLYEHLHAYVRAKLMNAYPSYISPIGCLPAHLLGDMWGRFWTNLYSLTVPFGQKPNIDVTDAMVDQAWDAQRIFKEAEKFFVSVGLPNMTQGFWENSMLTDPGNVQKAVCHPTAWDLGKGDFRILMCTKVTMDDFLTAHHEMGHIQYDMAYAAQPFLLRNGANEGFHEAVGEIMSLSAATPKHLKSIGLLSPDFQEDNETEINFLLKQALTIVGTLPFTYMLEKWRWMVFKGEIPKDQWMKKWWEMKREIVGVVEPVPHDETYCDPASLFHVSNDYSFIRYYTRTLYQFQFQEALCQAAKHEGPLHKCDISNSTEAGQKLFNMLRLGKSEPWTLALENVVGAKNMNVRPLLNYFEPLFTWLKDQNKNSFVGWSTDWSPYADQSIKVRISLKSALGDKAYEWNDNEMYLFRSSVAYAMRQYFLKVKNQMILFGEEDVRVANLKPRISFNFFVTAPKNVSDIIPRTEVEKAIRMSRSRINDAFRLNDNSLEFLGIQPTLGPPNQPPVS

ACE2 [2] = target: T1, ACE2; test: Bio-layer interferometry (BLI) binding of immobilized biotinylated peptides to ACE2; details: BLI; for binding to ACE2 by BLI (in words): scrambled peptides tested at 250 nM ACE2; for Kd: biotinylated peptide on streptavidin tips, ACE2 1000-62.5 nM, 30 °C, global 1:1 fit, read-out: KD (dissociation constant) to ACE2
Description: Peptide binding validation was carried out using the ForteBio Octet RED96 system. The chamber temperature was kept constant at 30 °C with a plate agitation speed at 1000 rpm. Briefly, streptavidin (SA)-coated biosensor tips were dipped into 200 μL of 1.0–2.0 μM biotinylated peptide solution (in a kinetic buffer (K.B.): 1 × PBS with 0.1% BSA and 0.02% Tween-20) for peptides immobilization. Once loaded with peptides, the tips were then moved into solutions containing various concentrations (1000, 500, 250, 125, and 62.5 nM) of recombinant ACE2 protein (purchased from Sino Biological, Catalog number 10108-H08H) in the K.B. to obtain the association curve. After the 180 s association step, the tips were moved back into the K.B. to obtain the dissociation curve. Buffer-only and protein-only conditions (concentration at 1000 nM) were used as references for background subtraction. The association and dissociation curves were fitted with the ForteBio Biosystems Data Analysis Software under 5 experimental conditions (n = 5, global fitting algorithm, binding model 1:1) to calculate the apparent dissociation constant (KD).
Supplementary Note 4: Binding affinity measurements
4.1 BLI raw binding data of noncanonical peptides […]
affinity was reported using the kinetic fitting results ( KD is calculated by divide the […]
off rate by on rate). […] The ACE2
as §1
4.2 BLI raw binding data of canonical peptides
Supplementary Fig. 20. The BLI binding curve fitting (red lines) of ABP C1-C4 and ABP C7-C9 from Library 1 AS-MS against ACE2.
ACE2 concentration was 250 nM.

ACE2 [3] = target: T1, ACE2; test: ELISA detection of ACE2 coated from 1 x PBS; type: binding; details: ACE2 in 1 x PBS 10 pM-100 nM coated; biotinylated peptide 100 nM; streptavidin-HRP, TMB, A450
Description: However, we observed a decreased detection sensitivity presumably due to the decreased amount of ACE2 being immobilized on the plate with many other serum proteins present. […] The plate was incubated with ABP N1 or control peptide, followed by streptavidin-HRP and TMB substrate. Absorbance was measured at 450 nm. The experiment was performed in technical triplicates (n = 3). Each data point, the mean signal as a bar, and error bars from experimental standard deviation, and statistical significance calculated with the unpaired Student’s t-test are shown. A serial dilution of soluble ACE2 was coated onto an ELISA plate (96-well format) overnight at 4 °C. The next day, the plate was blocked with 5% BSA in 1 × PBS supplement with 0.05% Tween-20 (PBST, pH 7.4) for 2–3 h at room temperature. […] Control groups are biotinylated peptide ABP N8 and PBST alone. The supernatant was then removed, and the wells were washed with PBST (3× 200 µL). Streptavidin-HRP conjugate in PBST (0.25 µg/mL, 100 µL) was added to each well and incubated for 30 min at room temperature. The plate was PBST-washed again (3 × 200 µL) before color development with 100 µL 1-Step™ Ultra TMB-ELISA Substrate Solution (Thermo Fisher, Catalog number 34028). After 10 min, the reaction was quenched with 2.0 M sulfuric acid (100 µL). Finally, the absorbance at 450 nm was measured on a microplate reader (BioTek) for all treated wells. […]

Compound | binding to unrelated protein 12ca5 (in words) (12ca5) | binding to ACE2 by BLI (in words) (ACE2 [2]) | other results
COc1ccc(C[C@H](NC(=O)[C@H](Cc2ccc(F)c(F)c2)NC(=O)[C@@H]2C[C@@H](O)CN2C(=O)[C@H]2CCCN2C(=O)[C@H]2CCCN2C(=O)CNC(=O)[C@H](CC2CC2)NC(=O)[C@H](Cc2cscn2)NC(=O)[C@@H](N)CC2CC2)C(=O)N[C@@H](Cc2cscn2)C(=O)NCCC(=O)NCc2ccc(C(=O)N[C@@H](CCCCN)C(N)=O)cc2)cc1OC [ABP N4] (H-[Ala(cPr)][Ala(4-thiazolyl)][Ala(cPr)]G[dP][dP][Hyp][Phe(3,4-F2)][Phe(3,4-(OMe)2)][Ala(4-thiazolyl)][βAla][4Amb]K-NH2) | minimal binding |  | binding to unrelated protein 12ca5 (in words) (12ca5; listed as N4): No apparent binding; inhibition of ABP binding to ACE2 by AngII (ACE2 [1]): not inhibited; inhibition of ABP binding to ACE2 by MLN-4760 (ACE2 [1]): completely inhibited
CS(=O)(=O)CC[C@H](NC(=O)[C@H]1CCCN1C(=O)[C@H](CCC(N)=O)NC(=O)CNC(=O)[C@H](Cc1ccc(F)c(F)c1)NC(=O)[C@H](Cc1cscn1)NC(=O)[C@@H](N)CC1CC1)C(=O)N[C@@H](CC1CCCCC1)C(=O)N[C@@H](CCC(N)=O)C(=O)N[C@@H](Cc1cscn1)C(=O)NCCC(=O)N[C@@H](Cc1cscn1)C(=O)N[C@@H](CCCCN)C(N)=O [ABP N5] (H-[Ala(cPr)][Ala(4-thiazolyl)][Phe(3,4-F2)]GQ[dP][Met(O2)][Cha]Q[Ala(4-thiazolyl)][βAla][Ala(4-thiazolyl)]K-NH2; N-terminus assumed) | No apparent binding | no binding | 
CS(=O)(=O)CC[C@H](NC(=O)[C@H](Cc1ccc(F)c(F)c1)NC(=O)[C@H](CCCN)NC(=O)[C@@H](N)CC1CC1)C(=O)N1C[C@H](O)C[C@H]1C(=O)N[C@@H](Cc1cscn1)C(=O)N1CCC[C@@H]1C(=O)N[C@@H](CCC(N)=O)C(=O)N[C@@H](Cc1ccc(F)c(F)c1)C(=O)N[C@@H](CC1CCCCC1)C(=O)N[C@@H](CC1CCCCC1)C(=O)NCCC(=O)N[C@@H](CCCCN)C(N)=O [ABP N6] (H-[Ala(cPr)][Orn][Phe(3,4-F2)][Met(O2)][Hyp][Ala(4-thiazolyl)][dP]Q[Phe(3,4-F2)][Cha][Cha][βAla]K-NH2) | minimal binding |  | binding to unrelated protein 12ca5 (in words) (12ca5; listed as N6): No apparent binding; inhibition of ABP binding to ACE2 by AngII (ACE2 [1]): not inhibited; inhibition of ABP binding to ACE2 by MLN-4760 (ACE2 [1]): not inhibited
CS(=O)(=O)CC[C@H](NC(=O)[C@H](Cc1ccc(F)c(F)c1)NC(=O)[C@H](CCS(C)(=O)=O)NC(=O)[C@H](CC1CCCCC1)NC(=O)[C@H](CC(=O)O)NC(=O)C1(c2ccccc2)CCN(C(=O)CCNC(=O)CNC(=O)[C@H]2CCCN2C(=O)[C@H](CCCCNC(=N)N)NC(=O)[C@H](Cc2cscn2)NC(=O)[C@@H](N)CC2CC2)CC1)C(=O)N[C@@H](CCCCN)C(N)=O [ABP N8] (H-[Ala(cPr)][Ala(4-thiazolyl)][hArg][dP]G[βAla][X1]D[Cha][Met(O2)][Phe(3,4-F2)][Met(O2)]K-NH2; N-terminus assumed) | No apparent binding | no binding | ELISA detection of ACE2 (in words) (ACE2 [3]): no binding
CS(=O)(=O)CC[C@H](NC(=O)C[C@H](CO)NC(=O)[C@H](CC1CC1)NC(=O)[C@@H](N)Cc1cscn1)C(=O)N[C@@H](CC1CCCCC1)C(=O)N[C@@H](Cc1cscn1)C(=O)N[C@@H](CCCN)C(=O)N[C@@H](Cc1ccc(F)c(F)c1)C(=O)N[C@@H](CCCN)C(=O)N[C@@H](CCC(N)=O)C(=O)NCC(=O)N[C@@H](Cc1ccc(N)cc1)C(=O)N[C@@H](CCCCN)C(N)=O [Scrm N1.1] (H-[Ala(4-thiazolyl)][Ala(cPr)][β3hS][Met(O2)][Cha][Ala(4-thiazolyl)][Orn][Phe(3,4-F2)][Orn]QG[Phe(4-NH2)]K-NH2; N-terminus assumed) |  | No apparent binding | 
CS(=O)(=O)CC[C@H](N)C(=O)N[C@@H](CCCN)C(=O)N[C@@H](CC1CCCCC1)C(=O)N[C@@H](Cc1ccc(F)c(F)c1)C(=O)N[C@@H](Cc1ccc(F)c(F)c1)C(=O)N[C@@H](CO)CC(=O)NCC(=O)N[C@@H](Cc1cscn1)C(=O)N[C@@H](Cc1cscn1)C(=O)N[C@@H](CC1CC1)C(=O)N[C@@H](CCC(N)=O)C(=O)N[C@@H](CCCN)C(=O)N[C@@H](CCCCN)C(N)=O [Scrm N1.2] (H-[Met(O2)][Orn][Cha][Phe(3,4-F2)][Phe(3,4-F2)][β3hS]G[Ala(4-thiazolyl)][Ala(4-thiazolyl)][Ala(cPr)]Q[Orn]K-NH2; N-terminus assumed) |  | No apparent binding | 
LHKQFGWHWFGFK-NH2 [ABP C3] |  |  | Kd (ACE2 [2]): 35 nM
LQAKPVPQFWPFK-NH2 [ABP C5] |  | no binding | 
LQKFLGERFPGWK-NH2 [ABP C6] |  | no binding | 
LQRGVFGFPYRVK-NH2 [ABP C7] |  |  | Kd (ACE2 [2]): 26 nM
LQWHPAYWFMQVK-NH2 [ABP C8] |  |  | Kd (ACE2 [2]): 36 nM
